From ChEMBL document CHEMBL4028839, “Synthesis of octapeptin C4 and biological profiling against NDM-1 and polymyxin-resistant bacteria” (Bioorg Med Chem Lett, 2017)
Values after ≈ are worked out from the molar mass of the structure shown. Bridge positions count the residues as written; N and C are the ends. Square brackets hold non-standard residues; d marks the D form. Peptide text beside a SMILES is read from it. * marks the point of attachment. Decanoyl(3R-OH) = CCCCCCC[C@@H](O)CC(=O)*; dDab = NCC[C@@H](N)C(=O)O; Dab = NCC[C@H](N)C(=O)O

Tests used:
Klebsiella pneumoniae [1] = experiment: Antimicrobial activity against Klebsiella pneumoniae ATCC 13883 measured after 24 hrs; assay type: functional
[2] = system: Klebsiella quasipneumoniae subsp. Similipneumoniae; experiment: (§1) Antimicrobial activity against multi-drug resistant Klebsiella quasipneumoniae subsp. similipneumoniae ATCC 700603 measured after 24 hrs; assay type: functional
Staphylococcus aureus = experiment: Antimicrobial activity against meticillin-susceptible Staphylococcus aureus ATCC 25923 measured after 24 hrs; assay type: functional
Acinetobacter baumannii = experiment: Antimicrobial activity against Acinetobacter baumannii ATCC 19606 measured after 24 hrs; assay type: functional
Escherichia coli = experiment: Antimicrobial activity against Escherichia coli ATCC 25922 measured after 24 hrs; assay type: functional
Pseudomonas aeruginosa [3] = experiment: Antimicrobial activity against polymyxin-resistant Pseudomonas aeruginosa clinical isolate FADDI-PA070 measured after 24 hrs; assay type: functional
Pseudomonas aeruginosa [4] = experiment: Antimicrobial activity against Pseudomonas aeruginosa ATCC 27853 measured after 24 hrs; assay type: functional
Klebsiella pneumoniae [5] = experiment: Antimicrobial activity against NDM-1 positive Klebsiella pneumoniae BAA-2146 measured after 24 hrs; assay type: functional
Pseudomonas aeruginosa [6] = experiment: Antimicrobial activity against polymyxin-resistant Pseudomonas aeruginosa clinical isolate PA9704 measured after 24 hrs; assay type: functional
[7] = (§2) Cytotoxicity against human RPTEC after 24 hrs by LDH assay; assay type: cell-based; details: RPTEC cells
[8] = (§3) Cytotoxicity against HK2 cells after 24 hrs by LDH assay; assay type: cell-based, HK-2; details: human, HK-2 cells
[9] = as §1; assay type: functional; details: ATCC 700603, 24 h
RPTEC = experiment: as §2; assay type: cell-based; details: rptec, 24 h
HK-2 = experiment: as §3; assay type: cell-based; details: human, hk-2, 24 h
[10] = ATCC 19606 = CIP 70.34 = JCM 6841, 24 h

Compound	CC50 at 24 h [7]	CC50 at 24 h [8]	MIC (Klebsiella pneumoniae [1]; ATCC 13883, 24 h)	MIC [9]	MIC (Staphylococcus aureus; ATCC 25923, 24 h)	MIC (Acinetobacter baumannii; [10])	MIC (Escherichia coli; ATCC 25922, 24 h)	MIC (Pseudomonas aeruginosa [3]; isolate FADDI-PA070, 24 h)	MIC (Pseudomonas aeruginosa [4]; ATCC 27853, 24 h)	MIC (Klebsiella pneumoniae [5]; ATCC BAA-2146, 24 h)	MIC (Pseudomonas aeruginosa [6]; isolate PA9704, 24 h)	other results
POLYMYXIN B [listing 1 of 2 here]	–	–	–	–	–	–	–	–	–	–	–	MIC (Klebsiella pneumoniae [1]): 0.25 µg/mL; MIC [2]: 0.25 µg/mL; MIC (Staphylococcus aureus): > 64 µg/mL; MIC (Acinetobacter baumannii; ATCC 19606 = CIP 70.34 = JCM 6841): 0.25 µg/mL; MIC (Escherichia coli): 0.25 µg/mL; MIC (Pseudomonas aeruginosa [3]): 32 µg/mL; MIC (Pseudomonas aeruginosa [4]): 0.5 µg/mL; MIC (Klebsiella pneumoniae [5]; ATCC BAA-2146): 0.25 µg/mL; MIC (Pseudomonas aeruginosa [6]): 128 µg/mL
CCCCCCC[C@@H](O)CC(=O)N[C@H](CCN)C(=O)N[C@@H](CCN)C(=O)N[C@@H](CCN)C(=O)N[C@H](Cc1ccccc1)C(=O)N[C@@H](CC(C)C)C(=O)N[C@@H](CCN)C(=O)N[C@@H](CCN)C(=O)N[C@@H](CC(C)C)C(=O)O [listing 1 of 2 here]	71 µM	139 µM	–	–	–	–	–	–	–	–	–	–
CCCCCCC[C@@H](O)CC(=O)N[C@H](CCN)C(=O)N[C@@H](CCN)C(=O)N[C@@H](CCN)C(=O)N[C@H](Cc1ccccc1)C(=O)N[C@@H](CC(C)C)C(=O)N[C@@H](CCN)C(=O)N[C@@H](CCN)C(=O)N[C@@H](CC(C)C)C(=O)O [listing 2 of 2 here]	–	–	> 32 µg/mL	16 µg/mL (≈ 15.1 µM)	32 µg/mL (≈ 30.1 µM)	> 32 µg/mL	16 µg/mL (≈ 15.1 µM)	32 µg/mL (≈ 30.1 µM)	4 µg/mL (≈ 3.77 µM)	> 32 µg/mL	> 32 µg/mL	–
POLYMYXIN B [listing 2 of 2 here]	–	–	–	–	–	–	–	–	–	–	–	CC50 (RPTEC): > 300 µM; CC50 (HK-2): 135 µM
CCCCCCC[C@@H](O)CC(=O)N[C@H](CCN)C(=O)N[C@H]1CCNC(=O)[C@H](CC(C)C)NC(=O)[C@H](CCN)NC(=O)[C@H](CCN)NC(=O)[C@H](CC(C)C)NC(=O)[C@@H](Cc2ccccc2)NC(=O)[C@H](CCN)NC1=O ({Decanoyl(3R-OH)}-[dDab][Dab][Dab][dF]L[Dab][Dab]L; lactam 2-C)	39 µM	31 µM	8 µg/mL (≈ 7.66 µM)	8 µg/mL (≈ 7.66 µM)	16 µg/mL (≈ 15.3 µM)	4 µg/mL (≈ 3.83 µM)	4 µg/mL (≈ 3.83 µM)	2 µg/mL (≈ 1.92 µM)	2 µg/mL (≈ 1.92 µM)	8 µg/mL (≈ 7.66 µM)	2 µg/mL (≈ 1.92 µM)	–
